Reference: patent US20150105252A1, “SUBSTITUTED PYRAZOLES AS HERBICIDES” (E I DU PONT DE NEMOURS AND COMPANY, priority 2013, published 2015)

How the values were obtained:
[1] = system: lambsquarters; assay: Test C preemergence; assay type: in vivo, Chenopodium album; settings: preemergence; for Plant response rating, Lambsquarters: 125 g ai/ha, scale 0 to 100, 0 = no effect, 100 = complete control
Outline: (§1)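 Seeds were sown in a loam soil–sand blend and sprayed preemergence with compounds formulated in a non-phytotoxic solvent mixture containing surfactant. Postemergence plants, grown in peat/vermiculite medium to 2–18 cm (1- to 4-leaf stage), received the same formulation. After 13 to 15 days in a greenhouse, injury was rated visually against controls (0 = no effect, 100 = complete control).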

[2] = system: barnyardgrass; assay: Test C postemergence; assay type: in vivo, Echinochloa crus-galli; settings: for Plant response rating (scale of 0 to 100 where 0 is no effect and 100 is complete control), Barnyardgrass: Postemergence, 31 g ai/ha, visually evaluated after 13 to 15 days; for Barnyardgrass plant response rating / Plant response rating, Barnyardgrass: postemergence; for Barnyardgrass plant response rating: 62 g ai/ha, scale 0 to 100
Outline: as §1

[3] = system: crabgrass, large; assay: Test C postemergence; assay type: in vivo, Digitaria sanguinalis; settings: for Plant response rating (scale of 0 to 100 where 0 is no effect and 100 is complete control), Crabgrass, Large: Postemergence, 31 g ai/ha, visually evaluated after 13 to 15 days; for Crabgrass, Large plant response rating / Plant response rating, Crabgrass, Large: postemergence; for Crabgrass, Large plant response rating: 62 g ai/ha, scale 0 to 100
Outline: as §1

[4] = system: wheat; assay: Test A postemergence; assay type: in vivo, Triticum aestivum
Outline: (§2)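 Visual injury ratings, 0 = no effect to 100 = complete control, taken about 10 days after treatment against untreated controls. Test chemicals, in a non-phytotoxic surfactant-containing solvent, were sprayed onto soil preemergence or onto one- to two-leaf plants (2–10 cm) postemergence, in loam–sand soil under greenhouse conditions.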

[5] = system: blackgrass; assay: Test C postemergence; assay type: in vivo, Alopecurus myosuroides; settings: for Plant response rating (scale of 0 to 100 where 0 is no effect and 100 is complete control), Blackgrass: Postemergence, 31 g ai/ha, visually evaluated after 13 to 15 days; for Blackgrass plant response rating / Plant response rating, Blackgrass: postemergence; for Blackgrass plant response rating: 62 g ai/ha, scale 0 to 100
Outline: as §1

[6] = system: nutsedge, yellow; assay: Test C postemergence; assay type: in vivo, Cyperus esculentus; settings: for Plant response rating (scale of 0 to 100 where 0 is no effect and 100 is complete control), Nutsedge, Yellow: Postemergence, 31 g ai/ha, visually evaluated after 13 to 15 days; for Nutsedge, Yellow plant response rating / Plant response rating, Nutsedge, Yellow: postemergence; for Nutsedge, Yellow plant response rating: 62 g ai/ha, scale 0 to 100
Outline: as §1

[7] = system: johnsongrass; assay: Test C preemergence; assay type: in vivo, Sorghum halepense; settings: preemergence; for Plant response rating, Johnsongrass: 125 g ai/ha, scale 0 to 100, 0 = no effect, 100 = complete control
Outline: as §1

[8] = system: rice; assay: Test B flood; assay type: in vivo, Oryza sativa; settings: 250 g ai/ha, visual rating on 0 to 100 scale (0 no effect, 100 complete control), 13 to 15 days
Outline: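 Response scored visually, 0–100 relative to controls, 13–15 days after the compound was applied into paddy water; plants were at the 2-leaf stage in pots kept flooded to 3 cm.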

[9] = system: pigweed; assay: Test A preemergence; assay type: in vivo, Amaranthus retroflexus; settings: preemergence; for Pigweed plant response rating (0 to 100 scale): 125 g ai/ha, visual injury approx. 10 days after treatment; for Pigweed plant response rating: 500 g ai/ha, visual injury after approx. 10 days, 0 to 100 scale (0 no effect, 100 complete control)
Outline: as §2

[10] = system: foxtail, giant; assay: Test C preemergence; assay type: in vivo, Setaria faberii; settings: preemergence; for Plant response rating, Foxtail, Giant: 125 g ai/ha, scale 0 to 100, 0 = no effect, 100 = complete control
Outline: as §1

[11] = system: velvetleaf; assay: Test C postemergence; assay type: in vivo, Abutilon theophrasti; settings: for Plant response rating, Velvetleaf / Velvetleaf plant response rating: postemergence; for Plant response rating, Velvetleaf: 250 g ai/ha, scale 0 to 100 (0 no effect, 100 complete control); for Velvetleaf plant response rating: scale 0 to 100
Outline: as §1

[12] = system: foxtail, giant; assay: Test A preemergence; assay type: in vivo, Setaria faberii; settings: preemergence; for Foxtail, Giant plant response rating (0 to 100 scale): 125 g ai/ha, visual injury approx. 10 days after treatment; for Foxtail, Giant plant response rating: 500 g ai/ha, visual injury after approx. 10 days, 0 to 100 scale (0 no effect, 100 complete control)
Outline: as §2

[13] = system: wheat; assay: Test A preemergence; assay type: in vivo, Triticum aestivum; settings: preemergence; for Wheat plant response rating (0 to 100 scale): 125 g ai/ha, visual injury approx. 10 days after treatment; for Wheat plant response rating: 500 g ai/ha, visual injury after approx. 10 days, 0 to 100 scale (0 no effect, 100 complete control)
Outline: as §2

[14] = 31 g ai/ha, visual rating, scale 0 to 100 (0 no effect, 100 complete control), 13 to 15 days
[15] = 62 g ai/ha, scale 0 to 100 (0 no effect, 100 complete control), 13 to 15 days
[16] = 250 g ai/ha, scale 0 to 100, 0 is no effect, 100 is complete control
[17] = 250 g ai/ha, scale 0 to 100 (0 no effect, 100 complete control)
[18] = 125 g ai/ha, scale 0 to 100, 0 no effect, 100 complete control
[19] = Postemergence, 500 g ai/ha, 0 to 100 scale (0 no effect, 100 complete control)
[20] = postemergence, 125 g ai/ha, about 10 days, visual rating on 0 to 100 scale (0 no effect, 100 complete control)

Compound	Lambsquarters plant response rating [1, 14]	Lambsquarters plant response rating [1, 15]	Plant response rating, Lambsquarters ([1]; 13 to 15 days)	Lambsquarters plant response rating [1, 16]	Plant response rating (scale of 0 to 100 where 0 is no effect and 100 is complete control), Barnyardgrass [2]	Barnyardgrass plant response rating [2]	Plant response rating, Barnyardgrass [2, 17]	Plant response rating, Barnyardgrass [2, 18]	Plant response rating (scale of 0 to 100 where 0 is no effect and 100 is complete control), Crabgrass, Large [3]	Crabgrass, Large plant response rating [3]	Plant response rating, Crabgrass, Large [3, 17]	Plant response rating, Crabgrass, Large [3, 18]	Wheat plant response rating [4, 19]	Wheat plant response rating [4, 20]	Plant response rating (scale of 0 to 100 where 0 is no effect and 100 is complete control), Blackgrass [5]	Blackgrass plant response rating [5]	Plant response rating, Blackgrass [5, 17]	Plant response rating, Blackgrass [5, 18]	Plant response rating (scale of 0 to 100 where 0 is no effect and 100 is complete control), Nutsedge, Yellow [6]	Nutsedge, Yellow plant response rating [6]	further results
O=C(NC1CC1)c1cc(CCCl)n(Cc2ccnc(C(F)(F)F)c2)n1 [Compound 144]	95	98	98	98	10	15	15	10	10	10	55	10	90	50	20	5	35	30	10	5	Plant response rating, Nutsedge, Yellow [6, 17]: 35; Plant response rating, Nutsedge, Yellow [6, 18]: 5; Johnsongrass plant response rating [7, 14]: 0; Johnsongrass plant response rating [7, 15]: 35; Plant response rating, Johnsongrass ([7]; 13 to 15 days): 75; Johnsongrass plant response rating [7, 16]: 100; Plant response rating, Rice [8]: 0; Pigweed plant response rating (0 to 100 scale) [9]: 100; Pigweed plant response rating [9]: 100; Foxtail, Giant plant response rating [10, 14]: 75; Foxtail, Giant plant response rating [10, 15]: 100; Plant response rating, Foxtail, Giant ([10]; 13 to 15 days): 100; Foxtail, Giant plant response rating [10, 16]: 100; Plant response rating (scale of 0 to 100 where 0 is no effect and 100 is complete control), Velvetleaf ([11]; Postemergence, 31 g ai/ha, visually evaluated after 13 to 15 days): 15; Plant response rating, Velvetleaf [11]: 50; Velvetleaf plant response rating [11]: 35; Foxtail, Giant plant response rating (0 to 100 scale) [12]: 100; Foxtail, Giant plant response rating [12]: 100; Wheat plant response rating (0 to 100 scale) [13]: 50; Wheat plant response rating [13]: 100
CCOc1cc(C(=O)NOC(C)C)nn1Cc1ccnc(C(F)(F)F)c1 [Compound 153]	85	98	98	100	5	10	15	10	5	10	45	15	100	90	0	5	5	5	5	5	Plant response rating, Nutsedge, Yellow [6, 17]: 15; Plant response rating, Nutsedge, Yellow [6, 18]: 20; Johnsongrass plant response rating [7, 14]: 5; Johnsongrass plant response rating [7, 15]: 35; Plant response rating, Johnsongrass ([7]; 13 to 15 days): 75; Johnsongrass plant response rating [7, 16]: 95; Plant response rating, Rice [8]: 40; Pigweed plant response rating (0 to 100 scale) [9]: 100; Pigweed plant response rating [9]: 100; Foxtail, Giant plant response rating [10, 14]: 60; Foxtail, Giant plant response rating [10, 15]: 85; Plant response rating, Foxtail, Giant ([10]; 13 to 15 days): 100; Foxtail, Giant plant response rating [10, 16]: 100; Plant response rating, Velvetleaf [11]: 65; Velvetleaf plant response rating [11]: 30; Foxtail, Giant plant response rating (0 to 100 scale) [12]: 100; Foxtail, Giant plant response rating [12]: 100; Wheat plant response rating (0 to 100 scale) [13]: 100; Wheat plant response rating [13]: 100
CCNC(=O)c1cc(CC)n(Cc2cc(C(F)(F)F)nn2C)n1 [Compound 154]	65	98	100	98	5	5	10	5	5	5	10	5	100	20	0	0	40	10	0	0	Plant response rating, Nutsedge, Yellow [6, 17]: 5; Plant response rating, Nutsedge, Yellow [6, 18]: 5; Johnsongrass plant response rating [7, 14]: 5; Johnsongrass plant response rating [7, 15]: 5; Plant response rating, Johnsongrass ([7]; 13 to 15 days): 55; Johnsongrass plant response rating [7, 16]: 85; Plant response rating, Rice [8]: 0; Pigweed plant response rating (0 to 100 scale) [9]: 100; Pigweed plant response rating [9]: 100; Foxtail, Giant plant response rating [10, 14]: 30; Foxtail, Giant plant response rating [10, 15]: 90; Plant response rating, Foxtail, Giant ([10]; 13 to 15 days): 100; Foxtail, Giant plant response rating [10, 16]: 100; Plant response rating, Velvetleaf [11]: 55; Velvetleaf plant response rating [11]: 25; Foxtail, Giant plant response rating (0 to 100 scale) [12]: 100; Foxtail, Giant plant response rating [12]: 100; Wheat plant response rating (0 to 100 scale) [13]: 0; Wheat plant response rating [13]: 100
CCCNC(=O)c1cc(CCF)n(Cc2ccnc(C(F)(F)F)c2)n1 [Compound 177]	85	98	98	98	5	5	20	10	5	5	10	5	100	50	20	15	35	20	10	5	Plant response rating, Nutsedge, Yellow [6, 17]: 15; Plant response rating, Nutsedge, Yellow [6, 18]: 5; Johnsongrass plant response rating [7, 14]: 10; Johnsongrass plant response rating [7, 15]: 70; Plant response rating, Johnsongrass ([7]; 13 to 15 days): 100; Johnsongrass plant response rating [7, 16]: 98; Plant response rating, Rice [8]: 15; Pigweed plant response rating (0 to 100 scale) [9]: 100; Pigweed plant response rating [9]: 100; Foxtail, Giant plant response rating [10, 14]: 85; Foxtail, Giant plant response rating [10, 15]: 98; Plant response rating, Foxtail, Giant ([10]; 13 to 15 days): 100; Foxtail, Giant plant response rating [10, 16]: 100; Plant response rating, Velvetleaf [11]: 60; Velvetleaf plant response rating [11]: 45; Foxtail, Giant plant response rating (0 to 100 scale) [12]: 100; Foxtail, Giant plant response rating [12]: 100; Wheat plant response rating (0 to 100 scale) [13]: 10; Wheat plant response rating [13]: 100
